7 compounds from publication PMC9137552, “Structural Characterization of Two Short Unspecific Peroxygenases: Two Different Dimeric Arrangements” (Antioxidants, 2022) can be followed below.

Like-named read-outs stand apart in the source and are kept apart here.

Assay [1] concerns T1, rCviUPO.
T1 construct: gene CviUPO
The following applies: read-out: K228stop; K228stop variant; 1 mM H2O2; 0.1 M acetate pH 4.0.

The test system of assay [2] is T2, rMroUPO.
T2 construct: gene MroUPO; mature enzyme without signal peptide, initial Met added, no tag, codon-optimised in pET23a, E. coli BL21, non-glycosylated; homodimer (C227-C227' disulfide), monomer 26-27 kDa; short UPO
The assay can be described thus: initial rates, absorbance at […] nm, Michaelis-Menten fit. As to conditions: 5 mM H2O2; 0.1 M acetate pH 5.0. It is filed as biochemical, Marasmius rotula.

For assay [3], the system named is T1, rCviUPO. As to conditions: read-out: C235A; 1 mM H2O2; 0.1 M acetate pH 4.0.
In assay [4] the test system is T3, rCviUPO.
T3 construct: gene CviUPO; mature enzyme without signal peptide, initial Met added, no tag, codon-optimised in pET23a, E. coli BL21, non-glycosylated; homodimer, monomer 26-27 kDa; known only as recombinant enzyme; short UPO
The assay is described as follows: initial rates, absorbance at […] nm, Michaelis-Menten fit. It is filed as biochemical, Collariella virescens. The following applies: K228stop variant; 1 mM H2O2; 0.1 M tartrate pH 5.0.

The test system of assay [5] is T3, rCviUPO. The assay is described as above. It is filed as biochemical, Collariella virescens. The following applies: 1 mM H2O2; 0.1 M tartrate pH 5.0; read-out: C235A.
Assay [6] relates to T3, rCviUPO. The description is as above. As to conditions: 1 mM H2O2; 0.1 M tartrate pH 5.0. It is filed as biochemical, Collariella virescens.
Assay [7] concerns T2, rMroUPO. The assay is described as above. It is filed as biochemical, Marasmius rotula. The following applies: 5 mM H2O2; 0.1 M tartrate pH 4.0.
The test system of assay [8] is T3, rCviUPO. The assay is described as above. It counts as biochemical, Collariella virescens. The following applies: 1 mM H2O2; pH 4.0 (table note; methods text gives pH 3 or 5); read-out: C235A.
Assay [9] relates to T3, rCviUPO. The description is as above. The following applies: 1 mM H2O2; 0.1 M acetate pH 3. It counts as biochemical, Collariella virescens.
In assay [10] the test system is T3, rCviUPO. The description is as above. It is filed as biochemical, Collariella virescens. As to conditions: K228stop variant; 1 mM H2O2; pH 4.0 (table note; methods text gives pH 3 or 5).
Assay [11] deals with T2, rMroUPO. Described as above. It is filed as biochemical, Marasmius rotula. As to conditions: 5 mM H2O2; 0.1 M acetate pH 4.6.
Assay [12] deals with rCviUPO C235A variant (Collariella virescens). The assay is described as follows: AUC + other: dynamic light scattering; sedimentation velocity, c(s) distributions (SEDFIT); diffusion coefficients from parallel DLS; molecular mass by the Svedberg equation.
The target of assay [13] is rCviUPO K228stop variant (C-terminal tail deletion) (Collariella virescens). The description is as above.
For assay [14], the target named is recombinant unspecific peroxygenase from Collariella virescens (rCviUPO), native (nonmutated) (Collariella virescens). The assay is described as above.
Assay [15] has the same target. The assay is described as follows: SEC; Superdex 75, isocratic elution with 10 mM Tris (pH 7.4), 0.15 M NaCl; masses against standards, compared with SDS-PAGE with mercaptoethanol; P201stop analysed during its last purification step. (Size exclusion chromatography separates by hydrodynamic size, large species first.)
The target in assay [16] is recombinant unspecific peroxygenase from Marasmius rotula (rMroUPO), native (nonmutated) (Marasmius rotula). The assay is described as above.

Regarding `CCn1c(=NN=c2sc3cc(S(=O)(=O)O)ccc3n2CC)sc2cc(S(=O)(=O)O)ccc21` [ABTS, 2,2′-azino-bis(3-ethylbenzothiazoline-6-sulfonic acid)], the results for the Km in the assay with rCviUPO [1], in the assay with rMroUPO [2] and in the assay with rCviUPO [3] were 110 ± 15 µM, 246 ± 3 µM and 87 ± 7 µM, respectively.

For `COc1cccc(OC)c1O` [DMP, 2,6-dimethoxyphenol], the Km in the assay on rCviUPO [4] is 3720 ± 250 µM; in the assay with rCviUPO [5], 4500 ± 424 µM; in the assay on rCviUPO [6] it was 4930 ± 470 µM; with rMroUPO [7] it was 206 ± 38 µM.

On to `COc1ccc(CO)cc1OC` [Veratryl alcohol], for which the Km was 7240 ± 820 µM in the assay on rCviUPO [8], 2940 ± 160 µM in the assay on rCviUPO [9], 55300 µM with rCviUPO [10] and 54.2 ± 16.7 µM in the assay on rMroUPO [11].

The term stoichiometry N denotes a count of units in the complex or per binding partner. For rCviUPO C235A variant (enzyme), the stoichiometry N in [12] came to 2.

With “rCviUPO K228stop variant (C-terminal tail deletion) (domain or fragment)”, in assay [13], the stoichiometry N is 2.

Turning to “recombinant unspecific peroxygenase from Collariella virescens (rCviUPO), native (nonmutated) (enzyme)”, the stoichiometry N in [14] and in assay [15] was 2 in each case.

Turning to “recombinant unspecific peroxygenase from Marasmius rotula (rMroUPO), native (nonmutated) (enzyme)”, the stoichiometry N in assay [16] came to 2.
